Test results from PMC6593967, “The development and prevalidation of an in vitro mutagenicity assay based on MutaMouse primary hepatocytes, Part II: Assay performance for the identification of mutagenic chemicals” (Environmental and Molecular Mutagenesis, 2019).
Where “and” joins values, the source holds several entries; their conditions need not be identical. Equal entries are not always repeated. Entries after “also recorded” stand apart in the source; their conditions may differ. Where two headings read alike, the source gives them in different places.

Columns and labels:
[1] = tested on: MutaMouse primary hepatocytes (PHs); assay: MutaMouse PH in vitro gene mutation assay (lacZ mutant frequency, P-Gal positive selection); conditions: for Significant MF increase over concurrent vehicle control at any concentration: Bonferroni-corrected contrasts; for Overall treatment effect on MF (Chi-squared test): P < 0.05 significant
[2] = tested on: MutaMouse FE1 lung epithelial cells; conditions: cited from earlier work
[3] = tested on: MutaMouse primary hepatocytes (PHs); assay: Cytotoxicity by relative increase in nuclear counts (RINC), flow cytometry; format: cell-based, mouse
Description: Cytotoxicity was measured using the relative increase in nuclear counts (RINC) metric. […] To normalize nuclei counts, 150 μL of a suspension of 6 μm fluorescently labeled polystyrene microspheres was added to each sample of lysate. […] Each microsphere‐lysate sample was diluted 1:10 prior to flow cytometric analysis. Data were acquired using a BD Biosciences FACScalibur flow cytometer (BD Biosciences, Mississauga, Ontario) equipped with a 488 nm laser. Instrumentation settings and data acquisition were facilitated using CellQuest Pro software (BD Biosciences). Data analysis was performed using Flowing Software version 2.5.1 (Turku Centre for Biotechnology, Turku, Finland). SYTOX® green and bead fluorescence emission were captured in the FL1 channel (530/30 band‐pass filter). Events were scored as nuclei following the application of key criteria (i.e., within a side scatter (SSC) vs forward scatter (FSC) region, within a region that excludes doublets, and within an FSC vs. FL1 region).

[4] = tested on: tk locus; conditions: S9; PhIP: human TK6 assay; 3-NBA: tk locus in human lymphoblast lines h1A1v2 and MCL-5; ref citations provided; cited from earlier work
[5] = tested on: pUR288 lacZ Plasmid Mouse PHs; conditions: cited from earlier work; for Response in pUR288 lacZ Plasmid Mouse PHs gene mutation assay: ref citations provided
[6] = tested on: MutaMouse; conditions: cited from earlier work; for Relative potency in the MutaMouse gene mutation assay in vivo: ref Gocke et al., 2009, Luijten et al., 2016, Hanna, 2018, Long et al.
[7] = ref NTP, 1982, 1986, Kirkland et al., 2008, Fowler et al., 2012a, 2016; cited from earlier work
[8] = tested on: p53‐functional human cells; conditions: ref NTP, 1982, 1986, Kirkland et al., 2008, Fowler et al., 2012a, 2016; cited from earlier work
[9] = tested on: hematopoietic tissues (e.g., the bone marrow and blood); conditions: cited from earlier work
[10] = tested on: p53‐deficient hamster cells; conditions: ref NTP, 1982, 1986, Kirkland et al., 2008, Fowler et al., 2012a, 2016; cited from earlier work
[11] = tested on: liver; parameters: method as in Rompelberg et al., 1996a; Rompelberg et al., 1996b; conditions: ref Rompelberg et al., 1996a, 1996b; cited from earlier work
[12] = 6 h exposure, 72 h sampling, no exogenous S9
[13] = BMR 100% (twofold MF increase), PROAST covariate analysis
[14] = lower limit of 90% confidence interval of BMD100
[15] = maximum response, concentration not given
[16] = upper limit of 90% confidence interval of BMD100
[17] = ref White et al., 2003, Hanna, 2018
[18] = at or above top concentrations tested

Compound	Response in MutaMouse PH gene mutation assay [1, 12]	BMD100, Exponential model [1, 13]	BMD100, Hill model [1, 13]	BMDL, Exponential model [1, 14]	BMDL, Hill model [1, 14]	MF fold increase over control in MutaMouse PHs [1, 15]	Relative mutagenic potency by BMD100 covariate analysis ([1]; ranking of positive chemicals)	BMDU, Exponential model [1, 16]	BMDU, Hill model [1, 16]	Response in MutaMouse FE1 gene mutation assay ([2]; S9, ref citations provided)	also measured
CC(=O)Nc1ccc2c(c1)Cc1ccccc1-2 [2‐AAF, 2‐acetylaminofluorene]	positive responses	1.9 µg/mL	1.9 µg/mL	0.964 µg/mL	0.964 µg/mL	2.6 fold	less potent than 3‐NBA and BaP	3.96 µg/mL	3.96 µg/mL	Positive (±S9)	MF fold-increase over control ([1]; 5 μg/mL, 6 h exposure, 72 h sampling): 2.6 fold; MF fold increase in MutaMouse FE1 cells [2, 17]: ~ 1.7 fold
O=C1c2ccccc2-c2ccc([N+](=O)[O-])c3cccc1c23 [3‐NBA, 3‐nitrobenzanthrone]	positive results; also recorded: positive responses	0.15 µg/mL	0.15 µg/mL	0.0689 µg/mL	0.0689 µg/mL	3.6 fold	most potent	0.373 µg/mL	0.363 µg/mL	Positive (±S9)	MF fold-increase over control ([1]; 0.5 μg/mL, 6 h exposure, 72 h sampling): 8.2 fold; MF fold increase above solvent control in MutaMouse FE1 cells ([2]; ref Arlt et al., 2008): ~ five; Cytotoxicity (RINC) in words [3, 18]: sharp increase in cytotoxicity
CC1(C)S[C@@H]2[C@H](NC(=O)[C@H](N)c3ccccc3)C(=O)N2[C@H]1C(=O)O [Ampicillin trihydrate]	Negative										
CN(C)N=O [DMN, dimethylnitrosamine]	positive responses	7.6 µg/mL	7.6 µg/mL	3.18 µg/mL	3.18 µg/mL	14.4 fold	less potent than 3‐NBA and BaP	21.5 µg/mL	16.8 µg/mL		MF fold-increase over control ([1]; 200 μg/mL, 6 h exposure, 72 h sampling): 14.4 fold
OC[C@@H](O)[C@@H](O)[C@H](O)[C@H](O)CO [D‐Mannitol]	Negative									Negative (−S9)	Response in MLA [4]: Negative (±S9); Response in pUR288 lacZ Plasmid Mouse PHs gene mutation assay [5]: Negative
CCN(N=O)C(N)=O [ENU, N‐ethyl‐N‐nitrosourea]	Positive	76 µg/mL	76 µg/mL	36.6 µg/mL	36.6 µg/mL	4.2 fold		178 µg/mL	170 µg/mL	Positive (−S9)	MF fold-increase over control ([1]; 1,000 μg/mL, 6 h exposure, 72 h sampling): 4.2 fold; MF fold increase in pUR288 lacZ plasmid mouse PHs ([5]; ref Luijten et al., 2016): ~ 4 fold; Response in pUR288 lacZ Plasmid Mouse PHs gene mutation assay [5]: Positive; MF fold increase in MutaMouse FE1 cells ([2]; ref White et al., 2003): ~ 6 fold; Relative potency in the MutaMouse gene mutation assay in vivo ([6]; liver and bone marrow): more potent than BaP; Relative potency in the MutaMouse gene mutation assay in vivo ([6]; small intestine, versus BaP): of equivalent potency
C=CCc1ccc(O)c(OC)c1 [Eugenol]	equivocal										Significant MF increase over concurrent vehicle control at any concentration [1]: absence of a significant response at any concentration tested; also recorded: Neither TBHQ nor eugenol yielded a significant increase in MF; Overall treatment effect on MF (Chi-squared test) [1]: significant result for the overall treatment effect; Overall treatment effect on MF (Chi-squared test) ([1]; listed as eugenol): significant treatment effect; Result in in vitro chromosome aberration test [7]: positive; Result in in vitro micronucleus assay [8]: negative results; Genotoxicity result in vivo ([9]; data limited, mainly hematopoietic tissues, ref Kirkland et al., 2016): negative results in vivo; Cytotoxicity (RINC) in words [3, 18]: could not be tested at higher concentrations due to cytotoxicity; also recorded: too cytotoxic to test at higher concentrations; Result for micronucleus [10]: positive; Result in in vivo MutaMouse assay ([6]; liver, ref Rompelberg et al., 1996a, Rompelberg et al., 1996b): negative results; Result in UDS assay [11]: negative results
COc1ccc2nc3cc(Cl)ccc3c(NCCCNCCCl)c2c1.Cl.Cl [ICR 191, 6‐chloro‐9‐[3‐(2‐chloroethylamino)propylamino]‐2‐methoxyacridine dihydrochloride]	negative result										Significant MF increase over concurrent vehicle control at any concentration [1]: did not yield a significant increase in MF; Overall treatment effect on MF (Chi-squared test) [1]: nor was a significant treatment effect detected
Cn1c(N)nc2ncc(-c3ccccc3)cc21 [PhIP, 2‐amino‐1‐methyl‐6‐phenylimidazo[4,5‐b]pyridine]	positive responses	2.6 µg/mL	2.6 µg/mL	1.05 µg/mL	1.05 µg/mL	3.7 fold	less potent than 3‐NBA and BaP	7.8 µg/mL	7.05 µg/mL	Positive (+S9)	MF fold-increase over control ([1]; 10 μg/mL, 6 h exposure, 72 h sampling): 3.7 fold; MF fold increase in MutaMouse FE1 cells [2, 17]: ~ 5.5 fold
CC(C)(C)c1cc(O)ccc1O [TBHQ, tertiary butylhydroquinone]	Negative										Significant MF increase over concurrent vehicle control at any concentration [1]: Neither TBHQ nor eugenol yielded a significant increase in MF; Result in in vitro chromosome aberration test [7]: positive; Result in in vitro micronucleus assay [8]: negative results; Genotoxicity result in vivo ([9]; in vivo): negative results in vivo; Cytotoxicity (RINC) in words [3]: relatively high RINC obtained at the top concentration; Result for micronucleus [10]: positive
aflatoxin B1 [AFB1]											BMD100, Exponential model [1]: 0.47 µg/mL; BMD100, Hill model [1]: 0.47 µg/mL; BMDL, Exponential model [1]: 0.193 µg/mL; BMDL, Hill model [1]: 0.193 µg/mL; BMDU, Exponential model [1]: 1.47 µg/mL; BMDU, Hill model [1]: 1.47 µg/mL; MF fold increase over control in MutaMouse PHs [1]: 3.6 fold; MF fold-increase over control [1]: 3.6 fold and 2.5 fold; Relative mutagenic potency by BMD100 covariate analysis [1]: most potent; Response in MutaMouse PH gene mutation assay [1]: positive responses; MF fold increase in MutaMouse FE1 cells [2]: ~ three; Response in MutaMouse FE1 gene mutation assay [2]: Positive (±S9); RINC [3]: 0.6 and 0.3
